Literature values in the PKSmart pharmacokinetics tables (Seal et al. 2025).
Where a SMILES comes first, the peptide text is derived from it. [ ]: non-standard residue; d: D form. The star is where a group is joined. ξ: configuration not given here. ξNMe2Val = CC(C)C(C(=O)*)N(C)C; NMeV = CN[CH](C(=O)O)C(C)C; NHtBu = CC(C)(C)N*

Test: Lombardo, Berellini, Obach 2018, Drug Metab Dispos 46:1466, doi 10.1124/dmd.118.082966
Details: human; for MRT / Vd / clearance / half-life: in vivo, iv; for fraction unbound: plasma

Compound | MRT [h] | Vd [L/kg] | clearance [mL/min/kg] | half-life [h] | fraction unbound
C[C@H](CCC(=O)O)[C@H]1CC[C@H]2[C@@H]3[C@H](O)C[C@@H]4C[C@H](O)CC[C@]4(C)[C@H]3CC[C@]12C | 0.57 | 0.19 | 5.7 | 1.42 | 
Nc1nc(F)nc2c1ncn2[C@@H]1O[C@H](CO)[C@@H](O)[C@@H]1O | 12 | 2.2 | 3.2 | 11 | 0.76
O=C1C[C@@H](c2ccccc2)Oc2cc(O)cc(O)c21 | 0.47 | 0.8 | 27 | 0.7 | 
CN(C)Cc1c(C(=O)NCCOc2ccc(C(O)=NO)cc2)oc2ccccc12 | 2.65 | 2.6 | 16.3 | 5.9 | 
CCC(CC)COC(C(=O)OCCN(C)C)(c1ccccc1)c1ccccc1 | 21 | 7.1 | 5.7 | 34 | 
CCC(=O)NC[C@@H]1C[C@H]1c1cccc2c1CCO2 | 0.62 | 0.33 | 9.04 | 0.75 | 
Cc1ccc([C@@H]2O[C@H](CO)[C@@H](O)[C@H](O)[C@H]2O)cc1Cc1ccc(-c2ccc(F)cc2)s1 | 7.25 | 1.19 | 2.74 | 10.3 | 0.01
Cc1cccc(N2CC(CO)OC2=O)c1 (stereo unspecified) | 2.3 | 1.5 | 11 | 1.6 | 0.49
O=c1[nH]c(=O)n(C2CCCO2)cc1F (stereo unspecified) | 10.8 | 0.62 | 0.95 | 8.69 | 
COc1ccc(CCN(C)CCCN2Cc3cc(OC)c(OC)cc3C2=O)cc1OC | 2.62 | 2.4 | 15.7 | 2.04 | 0.12
CNC(=O)c1cnn(-c2nc(N)c3ncn([C@@H]4O[C@H](CO)[C@@H](O)[C@H]4O)c3n2)c1 | 2.1 | 0.94 | 7.3 | 2 | 0.7
N=C(N)N1CCC[C@@H](CNC(=O)CC(NS(=O)(=O)c2ccc3ccccc3c2)C(=O)N(CC(=O)O)C2CC2)C1 (stereo partly specified) | 0.94 | 0.36 |  | 1.9 | 0.55
C/C(=C\[C@H](C(C)C)N(C)C(=O)C(NC(=O)C1CCCCN1C(C)C)C(C)(C)C)C(=O)O (stereo partly specified) | 21.5 | 1.26 | 0.97 | 17.5 | 
O=C(/C=C/c1ccc(O)cc1)C1=C(O)[C@](O)([C@@H]2O[C@H](CO)[C@@H](O)[C@H](O)[C@H]2O)C(O)=C([C@@H]2O[C@H](CO)[C@@H](O)[C@H](O)[C@H]2O)C1=O | 3.6 | 0.2 | 1 | 2.9 | 0.22
COC(=O)N(C)c1c(N)nc(-c2nn(Cc3ccccc3F)c3ncccc23)nc1N | 10 | 0.44 | 0.74 | 9.1 | 
CC(C)(S)C(N)C(=O)O (stereo unspecified) | 1.97 | 1.26 | 10.7 | 3.04 | 0.12
COc1ccc2[n-]c([S@+](O)Cc3ncc(C)c(OC)c3C)nc2c1 | 0.9 | 0.2 | 3.85 | 0.83 | 0.03
CS(=O)(=O)c1cc(F)cc2c3c(n(Cc4ccc(Cl)cc4)c12)[C@@H](CC(=O)O)CC3 | 13.7 | 1 | 1.21 | 11.8 | 
Cc1ncc(CO)c(CO)c1O | 1.38 | 0.66 | 7.9 | 0.98 | 
Cc1nnc(SCC2=C(C(=O)O)N3C(=O)C(NC(=O)Cn4cc(Cl)c(=O)c(Cl)c4)[C@H]3SC2)s1 (stereo partly specified) | 2.3 | 0.13 | 0.95 | 1.91 | 
C[C@]12CC[C@H]3[C@@H](CC=C4CC(=O)CC[C@@]43C)[C@@H]1CC[C@@H]2O | 0.25 | 0.35 | 24.5 | 0.17 | 0.057
OC(c1ccccc1)(c1ccccc1)C12CC[N+](CCOCc3ccccc3)(CC1)CC2 | 0.57 | 1.23 | 36 | 19 | 0.11
CCCCNc1cc(C(=O)O)cc(S(N)(=O)=O)c1Oc1ccccc1 | 1.1 | 0.16 | 2.5 | 1.2 | 
CC[C@@]1(O)CN2CC[C@H]1C[C@@H]2[C@@H](O)c1ccnc2ccc(OC)cc12 | 9.4 | 6.8 | 12 | 6.7 | 0.47
C=CCc1ccccc1OCC(O)CNC(C)C (stereo unspecified) | 3.6 | 3.2 | 15 | 2.5 | 

Compound | MRT [h] | Vd [L/kg] | clearance [mL/min/kg] | half-life [h] | fraction unbound
CN1C[C@H](CNC(=O)OCc2ccccc2)C[C@@H]2c3cccc4c3c(cn4C)C[C@H]21 | 1 | 0.57 | 9.6 | 0.93 | 
CCOP(=O)(OCC)C(C)NC(=O)N(CCCl)N=O (stereo unspecified) | 0.55 | 0.62 | 18.5 | 0.38 | 
CN(C)[C@@H]1C(O)=C(C(N)=O)C(=O)[C@@]2(O)C(O)=C3C(=O)c4c(O)cccc4[C@@](C)(O)[C@H]3[C@H](O)[C@@H]12 | 12 | 1.7 | 2 | 10 | 0.9
CCc1cc2c(cc1N1CCC(N3CCOCC3)CC1)C(C)(C)c1[nH]c3cc(C#N)ccc3c1C2=O | 13.8 | 6.35 | 7.69 | 11.7 | 0.003
O=P(O)(O)C(Sc1ccc(Cl)cc1)P(=O)(O)O | 9.5 | 0.23 | 0.4 | 7.7 | 0.1
CC[C@H](CC[C@@H](C)[C@H]1CC[C@H]2[C@@H]3CC=C4C[C@@H](O)CC[C@]4(C)[C@H]3CC[C@]12C)C(C)C | 250 | 0.3 | 0.02 | 372 | 
COc1ccc(CNC[C@@H](O)COc2ccc3[nH]c(=O)ccc3c2)cc1OC | 3.2 | 1.6 | 8.9 | 3.3 | 
CC(C)C(NC(=O)C(C(C)C)N(C)C)C(=O)N(C)C(C(=O)N1CCCC1C(=O)N1CCCC1C(=O)NC(C)(C)C)C(C)C (stereo unspecified) (ξNMe2Val-V[NMeV]PP-NHtBu; configuration not given here) | 0.58 | 0.33 | 9.6 | 0.57 | 
CNCc1ccc(-c2[nH]c3cc(F)cc4c3c2CCNC4=O)cc1 | 12.7 | 3.28 | 4.31 | 16.6 | 
CN(C)CCCN1c2ccccc2CCc2ccccc21 |  |  |  |  | 0.075
C[C@@H](c1cccnc1F)c1c(CCN(C)C)sc2ccccc12 | 10 | 5.73 | 10.4 | 15 | 
CC1(C)O[C@@H]2[C@@H](CO[C@@]3(COS(N)(=O)=O)OC(C)(C)O[C@@H]23)O1 | 48.7 | 0.8 | 0.27 | 34.8 | 0.72
N#Cc1ccc(Cn2cncc2CN2CCN(c3cccc(Cl)c3)C(=O)C2)cc1 | 4.2 | 0.8 | 3.2 | 2.6 | 
CC(C)(C)S(=O)(=O)CC(Cc1ccccc1)C(=O)NC(Cc1c[nH]cn1)C(=O)N[C@@H](CC1CCCCC1)[C@@H](O)C(O)C1CC1 (stereo partly specified) | 1.1 | 0.77 | 11.6 | 5.2 | 0.0558
Cc1cc(-n2cccc2)c(S(C)(=O)=O)cc1C(=O)NC(=N)N | 2.3 | 1.1 | 8.2 | 2.2 | 
NC(=O)N1C(=O)C(C(=O)c2cccs2)c2cc(Cl)ccc21 (stereo unspecified) | 31.6 | 0.11 | 0.058 | 22.7 | 0.01
Cc1cc(OC[C@H](O)CNC(C)C)c(C)c(C)c1O | 3.7 | 3.6 | 16.2 | 3.1 | 
Cc1onc(-c2ccccc2)c1C(=O)NC1C(=O)N2C(C(=O)O)C(C)(C)S[C@H]12 (stereo partly specified) | 0.5 | 0.19 | 6.3 | 0.7 | 0.07
O=C(CCCN1CCC(n2c(=O)[nH]c3ccccc32)CC1)c1ccc(F)cc1 | 7.5 | 3.8 | 8.3 | 5.8 | 
Cc1onc(-c2ccccc2)c1-c1ccc(S(N)(=O)=O)cc1 | 9.4 | 0.75 | 1.4 | 7.4 | 0.02
CCC(=O)O[C@](Cc1ccccc1)(c1ccccc1)[C@H](C)CN(C)C | 13 | 12 | 15 | 18 | 0.24
CCn1cc(C(=O)O)c(=O)c2cc(F)c(N3CCNCC3)cc21 | 4.5 | 1.88 | 6.96 | 4.45 | 0.13
CNC(=O)Nc1c(OCCN2CCCC2)c(OC)c2occc2c1OC | 4.2 | 0.8 | 3.2 | 5 | 
CN(c1nccc(=O)[nH]1)C1CCN(c2nc3ccccc3n2Cc2ccc(F)cc2)CC1 | 6 | 0.38 | 1.03 | 9.6 | 
COc1ccc(/C=C\c2cc(OC)c(OC)c(OC)c2)cc1NC(=O)C(N)CO (stereo unspecified) | 0.32 | 0.44 | 22.6 | 0.26 | 

Compound | MRT [h] | Vd [L/kg] | clearance [mL/min/kg] | half-life [h] | fraction unbound
CC[N+](CC)(CC)CCOc1cccc(OCC[N+](CC)(CC)CC)c1OCC[N+](CC)(CC)CC | 2.98 | 0.27 | 1.51 | 2.52 | 
C=CCNc1nc(NCC=C)nc(N2CCN(C(c3ccc(F)cc3)c3ccc(F)cc3)CC2)n1 | 607 | 35.4 | 0.97 | 1340 | 0.01
O=C(O)c1ccc(-n2nc(-c3ccccc3O)nc2-c2ccccc2O)cc1 | 4.07 | 0.2 | 0.84 | 4.05 | 0.004
N[C@@]1(C(=O)O)CS(=O)(=O)[C@H]2C(C(=O)O)[C@H]21 (stereo partly specified) | 1.44 | 0.21 | 2.4 | 1.23 | 
COC(=O)C[C@@](O)(CCCC(C)(C)O)C(=O)O[C@@H]1C(OC)=C[C@]23CCCN2CCc2cc4c(cc2[C@H]13)OCO4 | 10.2 | 1.8 | 2.96 | 9.8 | 
O=C(NC1CCN(CCc2c[nH]c3ccccc23)CC1)c1ccccc1 | 4.1 | 4.9 | 20 | 4.3 | 0.15
c1ccc(CN(CC2=NCCN2)c2ccccc2)cc1 | 3.45 | 3.9 | 19.7 | 2.29 | 
Cc1nc(NNC(=O)C(CC2CCCC2)CN(O)C=O)c(F)c(N2CCN3CCOCC3C2)n1 (stereo unspecified) | 2.2 | 0.75 | 5.6 | 4.2 | 
CC(=O)OCC1=C(C(=O)O)N2C(=O)C(NC(=O)CSc3ccncc3)[C@H]2SC1 (stereo partly specified) | 0.8 | 0.13 | 2.7 | 1.2 | 0.55
C#CCN(Cc1cc2c(=O)nc(C)[nH]c2cc1C)c1ccc(C(=O)NC(CCc2nnn[nH]2)C(=O)O)c(F)c1 (stereo unspecified) | 30.4 | 0.53 | 0.29 | 78.5 | 0.01
COc1ccc(CC(C)(C)NC[C@H](O)c2cc(O)cc3c2OCC(=O)N3)cc1 | 22.2 | 15.8 | 12.4 | 22.1 | 0.4
O=C(O)c1cccc(Cc2cc(Cl)ccc2OCc2ccc(Cl)cc2F)n1 | 6.4 | 0.77 | 2 | 8.15 | 
O=C1NC(c2ccccc2)(c2ccccc2)C(=O)N1COP(=O)(O)O | 0.17 | 0.06 | 3.5 | 0.16 | 0.05
COc1cc(N)cn[n+]1-c1ccccc1 | 13 | 4 | 5.1 | 14.1 | 
CCCCCNC(=N)NN=Cc1c[nH]c2ccc(OC)cc12 | 4.9 | 5.3 | 18 | 11 | 
CO[C@H]1[C@@H](O)[C@H](N)[C@@H](O[C@H]2O[C@H]([C@H](C)N)CC[C@H]2N)[C@H](O)[C@H]1N(C)C(=O)CN | 2.8 | 0.23 | 1.37 | 2 | 
O=C1NC(=O)C(c2cn3ccccc3n2)=C1C1=CN2CCN(C(=O)N3CCCCC3)C[C@@H]3C=C(F)C=C1[C@H]32 | 1.9 | 1.2 | 10.3 | 2.7 | 0.02
NC(CCC(=O)NC(CS(=O)(=O)CCOP(=O)(N(CCCl)CCCl)N(CCCl)CCCl)C(=O)NC(C(=O)O)c1ccccc1)C(=O)O (stereo unspecified) | 0.27 | 0.46 | 28.5 | 0.28 | 
CCn1cnc(C(=O)NC)c1C(=O)NC | 1 | 0.73 | 12.1 | 0.83 | 0.92
CN1CCN(CCCCN2C(=O)CN(/N=C/c3ccc(-c4ccc(Cl)cc4)o3)C2=O)CC1 | 100 | 13 | 2.4 | 79 | 0.06
CCc1cc2c(cc1CC)CC(NC[C@H](O)c1ccc(O)c3[nH]c(=O)ccc13)C2 | 72.4 | 19.4 | 4.48 | 92.5 | 
CN(C)N=Nc1nc[nH]c1C(N)=O | 7.8 | 1.2 | 2.6 | 6.2 | 1
COc1cc(OC)c(/C=C/S(=O)(=O)Cc2ccc(OC)c(NCC(=O)O)c2)c(OC)c1 | 1.2 | 0.11 | 1.51 | 0.95 | 
C#C[C@]1(O)CC[C@H]2[C@@H]3CC=C4CC(=O)CCC4[C@H]3C(=C)C[C@@]21CC (stereo partly specified) | 23.6 | 2.87 | 2 | 25 | 0.02
